Test results taken from patent US4772602A, “N-substituted 3,4-dihydropyrimidine derivatives as agents for treating disorders of cardiovascular system” (Suntory Limited, priority 1985, dated 1988).
Read-outs that look alike come from different tables or passages of the source.

Legend:
[1] = tested on: isolated guinea pig hearts (coronary artery); assay: coronary vascular dilative effect in isolated guinea pig hearts (Langendorff's method); design: species or system guinea pig (Heartley); conditions: 37° C., 0.1 ml administered into the coronary artery
Experimental: The coronary vascular dilative effect of 3N-substituted 3,4-dihydropyrimidine derivatives was tested.
Heartley guinea pigs (weight 400-500 g) were killed by a blow on the head and their hearts were immediately isolated. The hearts were perfused with Krebs-Henseleit solution bubbled with a mixture of 95% O2 +5% CO2 and maintained at 37° C. at a constant rate of 6 ml/minute according to the Langendorff's method [J. Pharmacol. Methods 2, 143 (1979)]. The perfusion pressure was measured by a pressure transducer continuously. Samples were prepared by emulsifying 1 mg of a test compound in 1 ml of a mixture of dimethylsulfoxide and physiological saline solution (1:9) and diluting with physiological saline solution to the predetermined concentration. 0.1 ml of the diluted solution was administered into the coronary artery via a rubber tube connected to an aorta cannula to obtain ED50 (μg/heart) data as shown in Table 3. The numbers of the compounds in the Table correspond respectively to those of the working examples described above.

vertebral artery = assay: vascular resistance of the vertebral artery in anesthetized dogs (ED30); type: in vivo, dog; conditions: Canis lupus familiaris, intravenous injection
Experimental: The pharmacological effect (ED30) of the compounds of the present invention with respect to the vascular resistance of the vertebral artery in anesthetized dogs was treated by the following procedure.
Adult dogs of either sex (7-14 kg in body weight) were anesthetized with at first thiopental sodium (35 mg/kg, intraperitoneal), anesthetized with urethane (400 mg/kg, intravenous) and chloralose (60 mg/kg, intravenous) and kept under artificial respiration throughout the experiment. After thoracotomy at the left first intercostal space, the vertebral artery was exposed and blood flow was measured with intracorporeal flow probe connected to an electromagnetic flowmeter (MF-27, Nihon Kohden).
At the same time, continuous measurement of the following parameters was made: systemic blood pressure (mean pressure) at the right femoral artery, the limb lead II ECG, the heart rate with a tachometer triggered by the R wave of ECG, and the vascular resistance determined by loading a electronic divider unit (EO-601 G, Nihon Kohden) with the mean values of blood pressure and vertebral artery blood flow. All of these parameters were recorded simultaneously on a polygraph (RM-600, Nihon Kohden).
All the test compounds were injected through a cannula inserted into the femoral vein.
The ED30 (μg/kg) values obtained by intravenous injection are listed in Table 4, wherein the Compound Numbers are keyed to the Example Numbers.

[2] = tested on: conscious spontaneously hypertensive rats (SHR); assay: hypotensive action in conscious spontaneously hypertensive rats (SHR); type: in vivo, rat (SHR); conditions: 10 mg/kg orally
Experimental: A selected compound of the present invention was tested for its hypotensive action in conscious spontaneously hypertensive rats (SHR).
A group of 17 to 20-week old male SHR were anesthetized with ether and a cannula was inserted into the left femoral artery. At least one day after the operation, the cannula was connected to a pressure transducer and the blood pressure was measured continuously under conscious and unrestrained condition, thereby obtaining the data shown in Table 6. The test compound as clear solution dissolved in 10% ethanol was administered orally at a dose of 10 mg/kg (body weight) to each animal fasted overnight.

[3] = acute toxicity (LD50), Litchfield-Wilcoxon method; design: species or system mouse (male ddY); conditions: mouse, in vivo, emulsion in 10% dimethyl sulfoxide
Experimental: The acute toxicity (LD50) data of compound No. 28 of the present invention as administered to two groups of 5 or 6-week old male ddY mice were obtained by the Litchfield-Wilcoxon method. One group of mice was fasted overnight prior to oral administration. To each group of mice, the test compound was administered in the form of emulsion in 10% dimethyl sulfoxide.

| Compound | ED50 (coronary vascular dilative effect) [1] [μg/heart] | ED30 (vertebral artery) [mg/kg] | time of maximum blood pressure decrease [2] [h] | Blood pressure decrease, 6 hours ([2]; 6 hours) | Blood pressure decrease, maximum decrease ([2]; in 2 hrs) [%] | LD50 ([3]; male ddY mice fasted overnight, oral, read-out: LD50 oral) [mg/kg] | LD50 ([3]; male ddY mice, intravenous, read-out: LD50 intravenous) [mg/kg] |
| --- | --- | --- | --- | --- | --- | --- | --- |
| CC1=NC(C)=C(C(=O)OCC2CC2)C(c2ccccc2[N+](=O)[O-])N1C(=O)OCCN(C)Cc1ccccc1Cl (stereo not drawn) [Compound 6] | 0.0092 | 0.0014 | – | – | – | – | – |
| CC1=NC(C)=C(C(=O)OCC2CC2)C(c2ccccc2[N+](=O)[O-])N1C(=O)OCCN(C)Cc1ccc([N+](=O)[O-])cc1 (stereo not drawn) [Compound 7] | 0.0012 | 0.00071 | – | – | – | – | – |
| CC1=NC(C)=C(C(=O)OCC2CC2)C(c2ccccc2[N+](=O)[O-])N1C(=O)OCCCCCN(C)Cc1ccccc1 (stereo not drawn) [Compound 9] | 0.10 | 0.0039 | – | – | – | – | – |
| CC1=NC(C)=C(C(=O)OC(C)C)C(c2ccccc2[N+](=O)[O-])N1C(=O)OCCN(C)Cc1ccccc1 (stereo not drawn) [Compound 10] | 0.060 | 0.00054 | – | – | – | – | – |
| CC1=NC(C)=C(C(=O)OCC2CC2)C(c2ccccc2[N+](=O)[O-])N1C(=O)OCCN(C)Cc1ccc(F)cc1 (stereo not drawn) [Compound 11] | 0.030 | 0.00055 | – | – | – | – | – |
| CC1=NC(C)=C(C(=O)OCC2CC2)C(c2ccccc2[N+](=O)[O-])N1C(=O)OCCN1CCc2ccccc2C1 (stereo not drawn) [Compound 21] | 0.45 | 0.002 | – | – | – | – | – |
| CC1=NC(C)=C(C(=O)OCC2CC2)C(c2ccccc2[N+](=O)[O-])N1C(=O)OCCN(CCCc1ccccc1)Cc1ccccc1 (stereo not drawn) [Compound 28, 3-[2-{N-benzyl-N-(3-phenylpropyl)amino}ethoxycarbonyl]-5-cyclopropylmethoxycarbonyl-2,6-dimethyl-4-(2-nitrophenyl)-3,4-dihydropyrimidine] | – | 0.0042 | 2 | 10-20% | 35 | > 1000 | 180 to 200 |
